Measurements from US7276511B2, “Benzylamine derivative” (Zeria Pharmaceutical Co., Ltd., priority 2003, dated 2007).
pIC50: −log10 of the molar value. Where a name gives a salt, the structure may show the parent alone.

Each compound was assayed against NK-1 receptor (Homo sapiens, UniProt P25103) (assay: NK-1 receptor-binding test ([3H]-Substance P, hNK1-CHO cells)). Conditions: not given.
Parameters: expressed in transfected cells; host or cells: CHO-K1 cells (ATCC: CCL-61), G418-resistant, hNK1-CHO
Experimental: 1. NK-1 Receptor-binding Test
1) Preparation of Human NK-1 Receptor Expression Cells
FuGene 6 transfection reagent (Boegringer Mannheim) (3 μL) was diluted in an F-12 culture broth (97 μL), and pCR3.1 plasmid to which human NK-1 receptor cDNA had been introduced (Invitrogen) (10 μL) was added thereto. The mixture was mixed and incubated for 15 minutes (transfection reagent). CHO-K1 cells (ATCC: CCL-61) were cultured for 24 hours, and the whole reagent prepared above was added to the cultured CHO-K1 cells ([…]). Subsequently, culture was performed in the presence of G418 (Stratagene), and the resistant cells were employed as cells into which human NK-1 receptor gene was introduced (hNK1-CHO).
2) Subcultivation of hNK1-CHO Cells
The hNK1-CHO cells were treated with trypsin-EDTA and subcultivated in an F-12 culture broth (containing 10% fetal bovine serum, 10 mM HEPES, 100 U/mL, penicillin, 100 μg/mL streptmycin, 400 μg/mL G418) in a 75-cm^2 flask (FALCON). Cells to be employed in the receptor-binding experiment were added to a 24-well plate (IWAKI) at 1×10^5 cells/well, and subcultured for 48 hours at 37° C. under 95% […] and 5% CO2.
3) Receptor-binding Experiment
When the hNK1-CHO cells became subconfluent on the 24-well plate, an F-12 culture broth (containing 10 mM HEPES and 0.1% fetal bovine serum) (450 μL), [^3H]-Substance P (Amersham, final concentration 0.5 nM), and a test compound were added to the cells, and the mixture was incubated for 40 minutes at 37° C. For the measurement of non-specific binding, L703606 (Sigma) was added instead of the test compound. After completion of incubation, the mixture was washed with ice-cooled phosphate buffered saline containing 0.1% fetal bovine serum, and the cells were lysed with 1N NaOH (0.5 mL). The lysate was transfered to a plastic vial containing UltimaGold MV (5 mL), and the radioactivity was determined by means of a liquid liquid scintillation counter (Packard, 2000CA).
(§1) Percent radioactive ligand-receptor binding inhibition of each test compound was calculated by use of the following equation, and IC50 (nM) was determined through pseudo-Hill analysis.
(§2) Percent inhibition (%)=[1−(C−A)/(B−A)]×100
(§3) A: Radioactivity attributed to non-specific binding
(§4) B: Radioactivity without test compound
(§5) C: Radioactivity with test compound

Sequence of NK-1 receptor (P25103 whole entry): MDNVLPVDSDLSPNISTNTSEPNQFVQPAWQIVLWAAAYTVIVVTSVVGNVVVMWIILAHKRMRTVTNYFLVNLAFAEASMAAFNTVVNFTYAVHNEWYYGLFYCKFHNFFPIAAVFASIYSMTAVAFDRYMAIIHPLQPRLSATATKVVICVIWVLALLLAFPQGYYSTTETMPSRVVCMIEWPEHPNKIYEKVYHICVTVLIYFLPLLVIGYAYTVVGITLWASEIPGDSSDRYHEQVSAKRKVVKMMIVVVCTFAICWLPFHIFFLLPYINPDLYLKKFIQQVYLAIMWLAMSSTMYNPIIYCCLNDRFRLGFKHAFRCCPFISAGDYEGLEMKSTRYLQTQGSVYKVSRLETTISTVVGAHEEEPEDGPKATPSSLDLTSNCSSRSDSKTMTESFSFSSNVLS

Row | SMILES | pIC50
1 | CN(C[C@](CCCN1CCC(C(N)=O)(c2ccccc2)CC1)(c1ccc(Cl)c(Cl)c1)N(C)C(=O)Oc1ccccc1)C(=O)C(F)(F)F [Compound No. 578, phenyl[1-(2,2,2-trifluoro-N-methylacetamide)-2-(S)-(3,4-dichlorophenyl)-5-(4-carbamoyl-4-phenylpiperidine-1′-yl)pentan-2-yl]methylcarbamate hydrochloride] | 8.02
2 | CN(C[C@](CCCN1CCC2(CC1)c1ccccc1C[S@+]2[O-])(c1ccc(Cl)c(Cl)c1)N(C)C(=O)Oc1ccc(F)cc1)C(=O)CC(F)(F)F [Compound No. 639, 4-fluorophenyl{1-(3,3,3-trifluoro-N-methylpropanamido)-2-(S)-(3,4-dichlorophenyl)-5-[spiro(benzo(c)thiophene-(2S)-oxido-1(3H),4′-piperidin)-1′-yl]pentan-2-yl}methylcarbamate hydrochloride] | 8.40
3 | CN(C[C@](CCCN1CCC2(CC1)c1ccccc1C[S@+]2[O-])(c1ccc(Cl)c(Cl)c1)N(C)C(=O)Oc1ccc(Cl)c(Cl)c1)C(=O)CC(F)(F)F [Compound No. 654, 3,4-dichlorophenyl{1-(3,3,3-trifluoro-N-methylpropanamido)-2-(S)-(3,4-dichlorophenyl)-5-[spiro(benzo(c)thiophene-(2S)-oxido-1(3H),4′-piperidin)-1′-yl]pentan-2-yl}methylcarbamate hydrochloride] | 8.52
4 | CN(C[C@](CCCN1CCC2(CC1)c1ccccc1C[S@+]2[O-])(c1ccc(Cl)c(Cl)c1)N(C)C(=O)Oc1ccccc1F)C(=O)CC(F)(F)F [Compound No. 638, 2-fluorophenyl{1-(3,3,3-trifluoro-N-methylpropanamido)-2-(S)-(3,4-dichlorophenyl)-5-[spiro(benzo(c)thiophene-(2S)-oxido-1(3H),4′-piperidin)-1′-yl]pentan-2-yl}methylcarbamate hydrochloride] | 8.22
5 | CN(C[C@](CCCN1CCC2(CC1)c1ccccc1C[S@+]2[O-])(c1ccc(Cl)c(Cl)c1)N(C)C(=O)Oc1ccc(Cl)cc1)C(=O)CC(F)(F)F [Compound No. 633, 4-chlorophenyl(1-(3,3,3-trifluoro-N-methylpropanamido)-2-(S)-(3,4-dichlorophenyl)-5-[spiro(benzo(c)thiophene-(2S)-oxido-1(3H),4′-piperidin)-1′-yl]pentan-2-yl}methylcarbamate hydrochloride] | 8.08
6 | COc1cc(COCC(CCCN2CCC(C(N)=O)(c3ccccc3)CC2)(c2ccc(Cl)c(Cl)c2)N(C)C(=O)Oc2ccccc2)cc(OC)c1OC (racemic) [Compound No. 17, [4-(4-Carbamoyl-4-phenyl-piperidine-1-yl)-1-(3,4-dichloro-phenyl)-1-(3,4,5-trimethoxy-benzyloxymethyl)-butyl]-methyl-carbamic acid phenyl ester hydrochloride] | 8.82

The compounds below were run against T1, Cloned Neurokinin Receptor Subtype 2 Human (Homo sapiens, UniProt P21452) (assay: NK-2 receptor-binding experiment ([3H]-SR48968, CHO cell membranes)). Conditions: Table 3; inhibition of [3H]-SR48968 (0.85 nM) binding, pseudo-Hill analysis.
T1 construct: purchased Biosignal Packard; host or cells: CHO cells
T1 sequence (P21452 1-398): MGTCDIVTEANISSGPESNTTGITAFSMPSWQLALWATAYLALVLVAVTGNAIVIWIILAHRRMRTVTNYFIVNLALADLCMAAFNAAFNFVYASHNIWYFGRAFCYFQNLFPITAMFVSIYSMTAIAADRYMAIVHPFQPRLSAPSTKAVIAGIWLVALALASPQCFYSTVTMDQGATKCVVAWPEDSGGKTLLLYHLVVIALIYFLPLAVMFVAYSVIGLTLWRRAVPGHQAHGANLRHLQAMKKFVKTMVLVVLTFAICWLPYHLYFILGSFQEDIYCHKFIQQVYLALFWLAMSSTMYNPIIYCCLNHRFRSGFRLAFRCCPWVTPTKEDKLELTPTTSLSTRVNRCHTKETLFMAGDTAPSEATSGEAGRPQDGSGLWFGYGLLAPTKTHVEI
Experimental: 2. NK-2 Receptor-binding Experiment
Cloned Neurokinin Receptor Subtype 2 Human (CHO cells, Biosignal Packard), [^3H]-SR48968 (Amersham, final concentration 0.85 nM), and a test compound were mixed with 20 mM HEPES buffer, and the mixture was incubated for 50 minutes at 27° C. After completion of incubation, membrane components were collected by means of an automatic filtration apparatus (Brandel) onto a GF/C glass fiber filter (Whatman).
Before use, in order to prevent non-specific binding, the glass fiber filter had been pre-treated with 0.1% polyethylene imine solution for about 4 hours.
The filter employed to collect the membrane components was transferred to a plastic vial containing UltimaGold MV (5 mL), and measured by means of a liquid scintillation counter (Packard, 2000CA) in terms of the radioactivity.
as §1, §2, §3, §4, §5

Row | pIC50 | SMILES
7 | 8.92 | CN(C[C@](CCN1CCC2(CC1)c1ccccc1C[S@+]2[O-])(c1ccc(Cl)c(Cl)c1)N(C)C(=O)c1ccccc1F)C(=O)CC(F)(F)F [Compound No. 30, N-{1-(3,3,3-trifluoro-N-methylpropanamido)-2-(S)-(3,4-dichlorophenyl)-4-[spiro(benzo(c)thiophene-(2S)-oxido-1(3H),4′-piperidin)-1′-yl]butan-2-yl}-N-methyl-2-fluorobenzamide hydrochloride]
8 | 8.17 | CN(C[C@](CCN1CCC2(CC1)NC(=O)Cc1ccccc12)(c1ccc(Cl)c(Cl)c1)N(C)C(=O)C(=O)N(C)c1ccccc1)C(=O)CC(F)(F)F [Compound No. 27, N^1-{1-(3,3,3-trifluoro-N-methylpropanamido)-2-(S)-(3,4-dichlorophenyl)-4-[3-oxo-3,4-dihydro-2H-spiro(isoquinoline-1,4′-piperidin)-1′-yl]butan-2-yl}-N^1,N^2-dimethyl-N^2-phenyloxalamide hydrochloride]
9 | 8.77 | CN(C[C@](CCN1CCC2(CC1)NC(=O)Cc1ccccc12)(c1ccc(Cl)c(Cl)c1)N(C)C(=O)c1ccccc1)C(=O)C(F)(F)F [Compound No. 23, N-{1-(2,2,2-trifluoro-N-methylacetamide)-2-(S)-(3,4-dichlorophenyl)-4-[3-oxo-3,4-dihydro-2H-spiro(isoquinoline-1,4′-piperidin)-1′-yl]butan-2-yl}-N-methylbenzamide hydrochloride]
10 | 8.39 | CN(CC(CCN1CCC2(CC1)c1ccccc1C[S@+]2[O-])(c1ccc(Cl)c(Cl)c1)N(C)C(=O)C(=O)N(C)c1ccccc1)C(=O)CC(F)(F)F (single isomer, unassigned) [Compound No. 10]
11 | 9.02 | CCC(=O)N(C)C[C@](CCN1CCC2(CC1)c1ccccc1C[S@+]2[O-])(c1ccc(Cl)c(Cl)c1)N(C)C(=O)c1ccccc1 [Compound No. 34, N-{1-(N-methyl-propionamide)-2-(S)-(3,4-dichlorophenyl)-4-[spiro(benzo(c)thiophene-(2S)-oxido-1(3H),4′-piperidin)-1′-yl]butan-2-yl}-N-methylbenzamide hydrochloride]
12 | 9.02 | CN(C[C@](CCN1CCC2(CC1)NC(=O)Cc1ccccc12)(c1ccc(Cl)c(Cl)c1)N(C)C(=O)c1ccccc1)C(=O)CC(F)(F)F [Compound No. 22, N-{1-(3,3,3-trifluoro-N-methylpropanamido)-2-(S)-(3,4-dichlorophenyl)-4-[3-oxo-3,4-dihydro-2H-spiro(isoquinoline-1,4′-piperidin)-1′-yl]butan-2-yl}-N-methylbenzamide hydrochloride]
13 | 8.34 | CCC(=O)N(C)C[C@](CCN1CCC2(CC1)c1ccccc1C[S@+]2[O-])(c1ccc(Cl)c(Cl)c1)N(C)C(=O)C(=O)N(C)c1ccccc1 [Compound No. 35, N^1-{1-(N-methyl-propionamide)-2-(S)-(3,4-dichlorophenyl)-4-[spiro(benzo(c)thiophene-(2S)-oxido-1(3H),4′-piperidin)-1′-yl]butan-2-yl}-N^1,N^2-dimethyl-N^2-phenyloxalamide hydrochloride]
14 | 8.54 | CN(C[C@](CCN1CCC2(CC1)NC(=O)Cc1ccccc12)(c1ccc(Cl)c(Cl)c1)N(C)C(=O)c1ccc(C(F)(F)F)cc1)C(=O)C(F)(F)F [Compound No. 24, N-{1-(2,2,2-trifluoro-N-methylacetamide)-2-(S)-(3,4-dichlorophenyl)-4-[3-oxo-3,4-dihydro-2H-spiro(isoquinoline-1,4′-piperidin)-1′-yl]butan-2-yl}-N-methyl-4-trifluoromethyl-benzamide hydrochloride]
15 | 8.72 | CCN(C(=O)C(=O)N(C)[C@](CCN1CCC2(CC1)NC(=O)Cc1ccccc12)(CN(C)C(=O)C(C)(C)C)c1ccc(Cl)c(Cl)c1)c1ccccc1 [Compound No. 38, N^1-{1-(N-methyl-trimethylacetamide)-2-(S)-(3,4-dichlorophenyl)-4-[3-oxo-3,4-dihydro-2H-spiro(isoquinoline-1,4′-piperidin)-1′-yl]butan-2-yl}-N^1-methyl-N^2-ethyl-N^2-phenyloxalamide hydrochloride]
